Test results taken from the supplement of paper PMC10307832.

Tests used:
Test in all cases: relative viability (nuclei count vs DMSO), 5 days (fraction); higher = more cells survive
Selumetinib + OSI-027 = compound: Cn1cnc2c(F)c(Nc3ccc(Br)cc3Cl)c(C(=O)NOCCO)cc21 [Selumetinib] + COc1cccc2cc(-c3nc([C@H]4CC[C@H](C(=O)O)CC4)n4ncnc(N)c34)[nH]c12 [OSI-027] (partner 0.5 µM)
Summary of the method: (§1)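 Lung cancer cell lines were pin-tool dosed in 1536-well plates on the day after seeding, with either a lone drug or a fixed anchor-drug dose plus five library-drug doses (not always all listed) in √10 steps. Nuclei were counted on 4× images after 5 days. Relative viability is the ratio of treated-well to vehicle-well nuclei counts, with each value a median of duplicate plates.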

Venetoclax + Luminespib = compound: CC1(C)CCC(CN2CCN(c3ccc(C(=O)NS(=O)(=O)c4ccc(NCC5CCOCC5)c([N+](=O)[O-])c4)c(Oc4cnc5[nH]ccc5c4)c3)CC2)=C(c2ccc(Cl)cc2)C1 [Venetoclax] + CCNC(=O)c1noc(-c2cc(C(C)C)c(O)cc2O)c1-c1ccc(CN2CCOCC2)cc1 [Luminespib] (partner 0.01 µM)
Summary of the method: as §1

Venetoclax + Pictilisib = compound: CC1(C)CCC(CN2CCN(c3ccc(C(=O)NS(=O)(=O)c4ccc(NCC5CCOCC5)c([N+](=O)[O-])c4)c(Oc4cnc5[nH]ccc5c4)c3)CC2)=C(c2ccc(Cl)cc2)C1 [Venetoclax] + CS(=O)(=O)N1CCN(Cc2cc3nc(-c4cccc5[nH]ncc45)nc(N4CCOCC4)c3s2)CC1 [Pictilisib] (partner 1 µM)
Summary of the method: as §1

Selumetinib + AZD7762 = compound: Cn1cnc2c(F)c(Nc3ccc(Br)cc3Cl)c(C(=O)NOCCO)cc21 [Selumetinib] + NC(=O)Nc1cc(-c2cccc(F)c2)sc1C(=O)N[C@H]1CCCNC1 [AZD7762] (partner 0.2 µM)
Summary of the method: as §1

| Cell Line | relative viability (Selumetinib + OSI-027; first compound 0.02 µM) | relative viability (Selumetinib + OSI-027; first compound 0.06325 µM) | relative viability (Selumetinib + OSI-027; first compound 0.2 µM) | relative viability (Selumetinib + OSI-027; first compound 0.6325 µM) | relative viability (Venetoclax + Luminespib; first compound 0.01 µM) | relative viability (Venetoclax + Luminespib; first compound 0.03162 µM) | relative viability (Venetoclax + Luminespib; first compound 0.1 µM) | relative viability (Venetoclax + Luminespib; first compound 0.3162 µM) | relative viability (Venetoclax + Luminespib; first compound 1 µM) | relative viability (Venetoclax + Pictilisib; first compound 0.01 µM) | relative viability (Venetoclax + Pictilisib; first compound 0.03162 µM) | relative viability (Venetoclax + Pictilisib; first compound 0.1 µM) | relative viability (Venetoclax + Pictilisib; first compound 0.3162 µM) | relative viability (Venetoclax + Pictilisib; first compound 1 µM) | relative viability (Selumetinib + AZD7762; first compound 0.02 µM) | relative viability (Selumetinib + AZD7762; first compound 0.06325 µM) | relative viability (Selumetinib + AZD7762; first compound 0.2 µM) | relative viability (Selumetinib + AZD7762; first compound 0.6325 µM) |
| --- | --- | --- | --- | --- | --- | --- | --- | --- | --- | --- | --- | --- | --- | --- | --- | --- | --- | --- |
| PC-14 | 0.752 | 0.716 | 0.73 | 0.538 | 0.175 | 0.122 | 0.15 | 0.153 | 0.154 | 0.588 | 0.649 | 0.693 | 0.81 | 0.604 | 0.364 | 0.397 | 0.276 | 0.313 |
| RERF-LC-KJ | 0.535 | 0.477 | 0.526 | 0.472 | 1.19 | 1.19 | 1.22 | 1.19 | 1.08 | 0.523 | 0.607 | 0.512 | 0.513 | 0.571 | 0.992 | 0.977 | 0.892 | 0.906 |
